This is an account of results in patent publication US8629110B2, “Kv1.3 channel blocking substances for the treatment of diseases associated with intimal hyperplasia” (priority 2008, dated 2014).

The target in data set [1] is T1, Kv1.3 channel (Homo sapiens, UniProt P22001). In words: Whole-cell patch-clamp in HEK cell transfected with the Kv1.3 channel. It is filed as cell-based. The note with it: 10 nM; potentials from +10 up to +80 mV; HEK cell transfected with Kv1.3. From the text:
FIG. 3. Example of the assay for determining if a substance is a Kv1.3 channel blocker. […] The amplitude of the maximum current evoked by each voltage pulse is depicted in panel B depending on the value of the membrane potential, with which the current (I) voltage (V) curve is constructed for the three situations.
To evaluate if a substance is capable of dose-dependently reducing the flow of current through Kv1.3 (i.e., if it is a Kv1.3 blocker). The currents through the Kv1.3 channels expressed in the heterologous system were studied by means of the patch-clamp technique in the whole-cell configuration. The currents were recorded at room temperature (21-25° C.). The cells, placed in a recording chamber located in an inverted microscope, were perfused with a physiological saline solution (in mM: 141 NaCl, 4.7 KCl, 1.2 MgCl2, 1.8 CaCl2, 10 glucose and 10 HEPES (pH 7.4 with NaOH). The recording pipettes were made from borosilicate glass (2.0 mm OD, WPI) with a pipette puller (Narishige PP-83) so that they have resistances between 2 and 5 MΩ upon filling them with an internal solution containing (in mM) 125 KCl, 4 MgCl2, 10 HEPES, 10 EGTA, 5 MgATP; (pH 7.2 with KOH). The whole-cell currents were recorded with an Axopatch 200 amplifier or the like, filtering at 2 kHz and sampling at 10 kHz. […]

In data set [2] the test system is VSMCs of the human uterine artery. The data set can be described thus: Proliferation of VSMCs in culture (BrdU incorporation). It counts as cell-based. The conditions noted are these: 10 nM; 24 hours; medium with 5% serum. How it is done: FIG. 8. Effect of the Kv1.3 channel blockers on the proliferation of the VSMCs of the human uterine artery. […] Again, these experiments were conducted in cells in control medium and cells in which the margatoxin or PAP was added to the medium.
For the proliferation studies, the fraction of cells incorporating 5-bromo-2′-deoxyuridine (BrdU) was determined. BrdU is a thymidine analog which can be incorporated in its place for the synthesis phase of the cell cycle. The cells incorporating BrdU can be detected by means of observation under a fluorescence microscope upon using a monoclonal antibody against this molecule and a secondary antibody conjugated with a fluorochrome. The assay was performed with a commercial kit (5-Bromo-2′-deoxy-uridine labeling and Detection Kit I; Roche Applied Science, Germany). The human uterine artery smooth muscle cells were grown for 48 hours in glass coverslips 12 mm in diameter in DMEM medium supplemented with serum and antibiotics as has been previously described, until reaching a confluence close to 50%. […] To quantify the results, the number of cells positive for BrdU with respect to the total number of cells in the field (which is determined by labeling the nuclei with the DAPI fluorescent dye) is counted in 10-20 fields in each experiment.
For orientation: Dividing cells build labelled thymidine or BrdU into new DNA.

Data set [3] in a line: Swine stent model: pharmacokinetics (blood and arterial tissue levels). It is filed as in vivo, pigs. Here is the method: (§1) The total weight of the polymer with the drug is about 500 μg and the drug:polymer ratio is 30%. The stents are packed individually, coded with a bar code (to do a double blind experiment) and sterilized with ethylene oxide.
(§2) 36 stents (12 with the polymer alone, 12 with PAP and 12 with ShK) are implanted in 12 young pigs (25-35 kg) in the anterior descending or circumflex branches of the left coronary artery or in the right coronary artery (at a proportion of 3 stents per animal). The animals recover from the operation and are sent back to the animal house where they receive a normal diet supplemented with aspirin (325 mg/d). Blood samples of the animals are obtained at 6, 12, 24, 48 and 96 hours to determine the plasma levels of PAP and ShK. At 7 (n=4) or 28 days (n=8) the animals are euthanized after performing a coronary arteriography for the quantitative analysis. In one animal of each group (7 and 28 days), after euthanasia the coronary arteries are dissected, the stent is removed and the samples are frozen in liquid nitrogen in order to determine different markers by means of Western blot of the tissues and to determine the levels of PAP and ShK in the arterial wall. In the rest of the animals, immediately after euthanasia the hearts are collected and the coronary arteries are fixed by perfusion of formalin at 10% for 30 minutes.

The test system of data set [4] is Swine animal model of restenosis (coronary artery intima). The data set can be described thus: Swine animal model for the treatment of restenosis: morphometric analysis of stented coronary arteries. It is filed as in vivo, pigs. Here is the method:
as §1, §2
A morphometric analysis is performed measuring the degree of endothelialization of the stent area, the content of VSMCs in the intima and its thickness in relation to the thickness of the vessel and the lumen area (see FIG. 9).

Data set [5] has as its target T2, Kv1.3 channels (Mus musculus, UniProt P16390).
T2 construct: endogenous in cells; host or cells: freshly dissociated and cultured VSMCs from femoral arteries of BPN mice
In words: Whole-cell patch-clamp of Kv currents in contractile and cultured VSMCs of mouse femoral arteries. It counts as cell-based. The note with it: 10 nM, pulse to +40 mV.
Experimental: To isolate the VSMCs (model of cells in contractile phenotype), the animals were sacrificed by decapitation after anesthesia with isoflurane (5% at 2.5 I O2 min^−1).
To obtain the VSMCs in culture (in vitro model of proliferative phenotype), small fragments (0.5 mm) of femoral arteries free of endothelium and connective tissue were placed in 35 mm Petri culture dishes covered with 2% gelatin (Type B, Sigma) in a DMEM culture medium with 20% of fetal bovine serum, 100 U/ml penicillin, 100 U/ml streptomycin and 2 mM L-glutamine at 37° C. in a 5% CO2 atmosphere. The migration and proliferation of the VSMCs of these explants was clear at 6-10 days, but the explants were maintained until the single layer of VSMC was confluent. At this time, by means of mechanical scraping with a rubber spatula the cells were shed and seeded in a new culture dish at ⅓ of their original density. The VSMCs were thus subjected to several passes (3-4) without showing apparent morphological changes.
The drugs were prepared at the final concentrations indicated in the saline solution of the bath following the supplier's instructions and were applied to the cells for a period of 1-2 minutes. The currents were recorded before applying the drug (control) and in the presence of the drug, and the percentage of reduction in the amplitude of the currents induced by different blockers was calculated.

In data set [6] the target is T1, Kv1.3 channel. The conditions noted are these: Kv1.3 channel; read-out: Affinity (Kd); cited from earlier work.

T1 sequence (P22001 whole entry): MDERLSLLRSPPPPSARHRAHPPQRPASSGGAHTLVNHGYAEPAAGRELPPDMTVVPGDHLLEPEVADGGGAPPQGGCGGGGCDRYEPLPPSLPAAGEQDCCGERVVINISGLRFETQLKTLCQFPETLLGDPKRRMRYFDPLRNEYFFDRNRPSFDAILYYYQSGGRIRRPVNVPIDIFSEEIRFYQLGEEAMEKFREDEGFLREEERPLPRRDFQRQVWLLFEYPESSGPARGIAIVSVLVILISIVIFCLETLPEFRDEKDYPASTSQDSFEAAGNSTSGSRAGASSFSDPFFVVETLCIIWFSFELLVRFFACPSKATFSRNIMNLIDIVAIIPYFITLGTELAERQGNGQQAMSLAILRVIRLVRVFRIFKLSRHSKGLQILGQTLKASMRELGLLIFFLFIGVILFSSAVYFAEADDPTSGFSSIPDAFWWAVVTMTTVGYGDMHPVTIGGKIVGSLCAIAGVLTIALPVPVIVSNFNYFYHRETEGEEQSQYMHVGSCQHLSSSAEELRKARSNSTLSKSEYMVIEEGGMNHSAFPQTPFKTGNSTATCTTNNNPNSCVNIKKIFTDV
T2 sequence (P16390 whole entry): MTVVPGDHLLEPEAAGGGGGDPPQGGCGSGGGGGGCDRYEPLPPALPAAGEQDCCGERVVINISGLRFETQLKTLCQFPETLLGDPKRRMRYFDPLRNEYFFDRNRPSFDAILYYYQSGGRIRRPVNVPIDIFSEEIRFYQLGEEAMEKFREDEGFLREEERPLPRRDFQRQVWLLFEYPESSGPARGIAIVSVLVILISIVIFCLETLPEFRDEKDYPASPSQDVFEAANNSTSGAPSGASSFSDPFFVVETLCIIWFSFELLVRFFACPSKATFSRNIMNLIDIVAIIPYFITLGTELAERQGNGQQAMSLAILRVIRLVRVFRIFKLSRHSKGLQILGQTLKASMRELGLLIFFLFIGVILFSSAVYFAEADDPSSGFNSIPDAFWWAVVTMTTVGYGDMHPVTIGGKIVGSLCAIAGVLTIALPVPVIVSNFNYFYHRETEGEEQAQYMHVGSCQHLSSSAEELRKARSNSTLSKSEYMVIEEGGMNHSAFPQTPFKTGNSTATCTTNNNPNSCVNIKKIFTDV

For the molecule `O=c1ccc2c(OCCCCOc3ccccc3)c3ccoc3cc2o1` [PAP-1], the “reduction of the current” value in data set [1] is listed as 80-85%. Also, the “fraction of cells labeled with BrdU (proliferation)” value in data set [2] is recorded as “a lower number of labeled nuclei is observed”. Further, in data set [3] (6 hours after implanting the stent, stent with 200 μg drug), the “blood levels, maximal” value is reported as “about 3 ng/ml”. Further, the “content in the arterial tissue” value stood at 97 ng/artery in data set [3] (at 7 days) and 30 ng/artery in data set [3] (at 28 days). Further, the “number of VSMCs in the intima” value in data set [4] (drug-coated stent versus control stent) is listed as “significantly decreased”. The molecule further had an intimal area in data set [4] (drug-coated stent, 5.07 mm^2 in control) of 2.23 mm^2. In data set [4] (drug-coated stent, 45% in control), this molecule had a degree of stenosis of 27%.

Regarding `CC[C@H](C)[C@@H]1NC(=O)[C@@H](NC(=O)[C@H](CO)NC(=O)[C@@H](N)CCCNC(=N)N)CSSC[C@@H](C(=O)O)NC(=O)[C@H]([C@@H](C)O)NC(=O)CNC(=O)[C@@H]2CSSC[C@@H]3NC(=O)[C@H](CCC(N)=O)NC(=O)[C@H](Cc4ccccc4)NC(=O)[C@H](C)NC(=O)[C@H]([C@@H](C)O)NC(=O)[C@H](CSSC[C@H](NC(=O)[C@H](Cc4ccccc4)NC(=O)[C@H](CO)NC(=O)[C@H](CC(C)C)NC(=O)[C@H](CCCNC(=N)N)NC(=O)[C@H](Cc4ccc(O)cc4)NC(=O)[C@H](CCCCN)NC(=O)[C@H](CCSC)NC(=O)[C@H](CO)NC(=O)[C@H](Cc4cnc[nH]4)NC(=O)[C@H](CCCCN)NC3=O)C(=O)N[C@@H](CCCNC(=N)N)C(=O)N[C@@H](CCCCN)C(=O)N[C@@H]([C@@H](C)O)C(=O)N2)NC(=O)[C@H](CCCNC(=N)N)NC(=O)[C@H](CO)NC(=O)[C@H](CCCCN)NC(=O)[C@@H]2CCCN2C(=O)[C@H]([C@@H](C)CC)NC(=O)[C@H]([C@@H](C)O)NC(=O)[C@H](CC(=O)O)NC1=O` [ShK], the level at 96 h in data set [3] (pig, in vivo, 200 ug per stent, at 4 days, below the limit of detection) is < 0.2 ng/mL.

One may read the Kd as the equilibrium constant for the complex coming apart. For Margatoxin, the “current blocked, of the Kv current” value in data set [5] (VSMCs in culture) is 58.15±4.54; in data set [5] (contractile VSMCs) it was 10.6±2.03. Moreover, in data set [2], the “fraction of cells labeled with BrdU (proliferation)” value was “a lower number of labeled nuclei is observed”. Moreover, in data set [6], the Kd was 0.11 nM.

For Titystoxin-Kα, the Kd in data set [6] was 4 nM.

For the molecule trans-N-propyl-carbamoyloxy-PAC, in data set [6], the Kd is 50 nM.

In the case of κ-Hefutoxin, the Kd in data set [6] is 40000 nM.
